US7259167B2, “Antimalarial and antiproliferative pharmacophore models, novel tryptanthrin compounds having increased solubility, and methods of making and using thereof” (United States of America as Represented by the Secretary of …, priority 2002, dated 2007)

Key:
[1] = Characteristics of DN49 dosing preparation; type: physicochemical; conditions: Hot DMSO and further diluted in PBS (1:10)
Description: DN49 was a yellow powder and dissolved completely in hot DMSO. The hot DMSO solution was then diluted 1:10 in PBS.

[2] = Further solubility experiments (remaining in solution after dilution); type: physicochemical
Description: After determining that heterocycles and hydroxy or amine substituted aromatics dissolve tryptanthrin compounds, the following was conducted to determine if once dissolved the compounds would remain in solution in aqueous environments. To this end 10 mg of DN49 was dissolved in 1.0 ml of piperidine to obtain a green solution. This solution was then added dropwise to 2.0 ml of deionized water without precipitation of the compound. The solution was placed in a chemical fume hood so that the piperidine could evaporate slowly. After a week, the piperidine had evaporated and the resulting solution had no solid in the aqueous environment and had turned from the green color of the piperidne complex back to the yellow color of uncomplexed DN49 solutions.
A […] green stock solution of DN49 in 1-(3-aminopropyl)imidazole was formed. To 1.95 ml of a given solvent listed below, 50 microliter of the stock solution was added and the resulting solution was vortexed for a second to ensure rapid mixing; this provided a 5 mM solution. The results by solvent follow: • 1. Chloroform: Solution goes from green to yellow in less than 30 minutes; no solid after more than three months at ambient conditions. • 2. Methanol: Solution goes from green to yellow between 5 and 12 hours after mixing; no solid. • 3. 1,4-dioxane: Solution goes from green to yellow in approximately 1 hour; no solid. • 4. Deionized water: Solution goes from […] over the course of several days; no solid. • 5. Acetonitrile: Solution goes from green to yellow in about 3 hours; no solid. • 6.

With `O=C1c2ccccc2-n2c1nc1ncccc1c2=O` [DN49] the solubility [1] was “Partial”, the “solid in aqueous solution after evaporation of piperidine” value ([2]; 10 mg in 1.0 ml piperidine added to 2.0 ml deionized water, after a week) was “no solid” and the “solid formation from 5 mM solution” value ([2]; 50 microliter 200 mM stock in 1-(3-aminopropyl)imidazole into 1.95 ml Chloroform, more than three months at ambient conditions) was “no solid”. For the same compound, the “solid formation from 5 mM solution” value ([2]; stock in 1-(3-aminopropyl)imidazole into 0.1 M aqueous citric acid) was “green solid fall out of solution after about 12 hours”, the “solid formation from 5 mM solution” value ([2]; stock in 1-(3-aminopropyl)imidazole into 1,4-dioxane) was “no solid” and the “solid formation from 5 mM solution” value ([2]; stock in 1-(3-aminopropyl)imidazole into 10% aqueous sodium bicarbonate) was “green precipitate after 8 hours”. The “solid formation from 5 mM solution” value ([2]; stock in 1-(3-aminopropyl)imidazole into Acetonitrile) was “no solid”, the “solid formation from 5 mM solution” value ([2]; stock in 1-(3-aminopropyl)imidazole into Deionized water) was “no solid” and the “solid formation from 5 mM solution” value ([2]; stock in 1-(3-aminopropyl)imidazole into Methanol) was “no solid”.
